Primed or numbered codes have the meaning given here. Where no end group is shown, it is not given here. [ ]: non-standard residue; d: D form. Dab′ = 2,3-diamino butyric acid; Nva = CCC[C@H](N)C(=O)O
Assays:
Format in all cases: in vivo, C57BL/6 mice
[1] = test system: Experimental dry eye (EDE) mice; experiment: Corneal fluorescein staining in experimental dry eye mice (Example 4); details: single treatment, topical; D5 and D10
Method: Experimental dry eye (EDE) was induced in 8-week old female C57BL/6 mice by subcutaneous injection of 0.5 mg/0.2 mL scopolamine hydrobromide (Sigma-Aldrich, St. Louis, Mo.) three times a day (9 AM 0.3 mL, 1:30 PM 0.3 mL, and 6:00 PM 0.3 mL). The mice were also exposed to an air draft and 30% ambient humidity. Five experimental groups used in this study included: (1) untreated control mice (UT; no dry eye treatment and no topical treatment); (2) EDE control mice received a balanced salt solution (BSS); (3) EDE mice received ADP 355 0.1% (single chain adiponectin peptidomimetic (ADP 355) in BSS); (4) EDE mice received Lifitegrast 5%; and (5) EDE mice received 0.1% peptide adiponectin peptidomimetic (ADP 355) in BSS+Lifitegrast 5%. […] Mice were evaluated at baseline, day 5 and day 10 after the treatment initiation.
Experiment 2—Corneal staining: The purpose of the corneal staining assay was to evaluate damage to the cornea epithelia in the murine EDE subject either as a consequence of inducing dry eye or due to treatment with 0.1% ADP 355 or with Lifitegrast 5% alone or with the combination of 0.1% ADP 355+Lifitegrast 5%. […] Corneal staining was assessed in four quadrants using a 4-point scale with 16 being the maximum score.
Briefly, fluorescein dye (1 μï) was instilled into the eye and then the eye was washed with saline. […] The average score from the five regions was recorded. […]

[2] = test system: Experimental dry eye (EDE) mice; experiment: Corneal fluorescein staining in experimental dry eye mice (Example 3); details: 0.01% in BSS; for corneal staining (corneal irregularity) compared to untreated EDE mice: topical 3 times a day, score 0-4, day 5 and day 10, p-value<0.05 vs. EDE; for corneal surfaces compared to untreated normal mice (UT) and positive control gAdipo-treated mice: topical, EDE mice
Method: (§1) Experimental dry eye (EDE) was induced in 8-week old female C57BL/6 mice by subcutaneous injection of 0.5 mg/0.2 mL scopolamine hydrobromide (Sigma-Aldrich, St. Louis, Mo.) three times a day (9 AM, 1:30 PM and 6 PM). A dose of 0.3 mL scopolamine hydrobromide was administered at each injection. The mice were also exposed to an air draft and 30% ambient humidity. 6 experimental groups used in this study included: (1) untreated control mice (UT; no dry eye treatment and no topical treatment); (2) untreated EDE control mice (EDE; received no topical administration); (3) EDE control mice received a balanced salt solution (BSS); (4) EDE mice received 0.01% single chain adiponectin peptidomimetic (ADP355) in BSS; (5) EDE mice receiving 0.01% peptide dimer adiponectin peptidomimetic (ADP399) in BSS; and (6) EDE mice receiving 0.01% recombinant globular adiponectin (gAdipo) in BSS. Each group included 5 mice. EDE mice treated with BSS received topical bilateral administration of 2 μï/eye, 3 times a day. EDE mice treated with ADP355 received topical bilateral administration of 2 μï/eye, 3 times a day. EDE mice treated with ADP-399 received topical bilateral administration of 2 μï/eye, 3 times a day. The gAdipo treated mice served as a positive treatment control. Mice were evaluated at baseline, day 5 and day 10 after the treatment initiation. In some experiments, ADP355, ADP-399 and gAdipo were resuspended in 0.01% BSA.
The severity of corneal epithelial damage was evaluated by corneal fluorescein staining. Briefly, 1% fluorescein dye (1 μï) was instilled into the eye and then the eye was washed with saline. 10 minutes after application of the dye, the eye was photographed with a slip lamp microscope using a cobalt blue light. The stained area was graded using a scoring system by two blinded observers. […] The average score from the five regions was recorded. […] In addition, the adiponectin peptidomimetic-treated mice (ADP355 and ADP-399) had corneal surfaces that were similar to those of untreated normal mice (UT) and positive control globular adiponectin-treated mice (gAdipo). The corneal surface scores in all groups at day 10 were similar to those at day 5 after treatment initiation.

[3] = test system: Experimental dry eye (EDE) mice; experiment: Tear volume by phenol red thread tear test in experimental dry eye mice (Example 3); details: 0.01% in BSS; for tear production, as measured by tear volume, compared to untreated or BSS treated EDE mice: topical 2 μl/eye 3 times a day, day 5 and day 10, p-value<0.05 vs. EDE; for difference in tear volume among those treated with ADP355, ADP399 and globular adiponectin: topical, EDE mice
Method: as §1
Tear volume was measured using a phenol red thread tear test. Briefly, a cotton thread treated with phenol red at its tip (Zone-Quick; Oasis, Glendora, Calif.) was held with jeweler's forceps and placed in the tear meniscus of the lateral canthus for 20 sees to contact tear fluid. Using a microscope, the length of the red portion (wet portion) of the thread was measured in millimeters. A standard curve was derived to convert the distance measurement into tear volume.

| Molecule | corneal disruptions resulting from induced dry eye (corneal staining grade) vs untreated eyes (BSS) [1] | corneal staining (corneal irregularity) compared to untreated EDE mice [2] | corneal surfaces compared to untreated normal mice (UT) and positive control gAdipo-treated mice [2] | tear production, as measured by tear volume, compared to untreated or BSS treated EDE mice [3] | difference in tear volume among those treated with ADP355, ADP399 and globular adiponectin [3] |
| --- | --- | --- | --- | --- | --- |
| CS(=O)(=O)c1cccc(C[C@H](NC(=O)c2c(Cl)cc3c(c2Cl)CCN(C(=O)c2ccc4ccoc4c2)C3)C(=O)O)c1 [Lifitegrast, reference compound] | improved corneal disruptions | – | – | – | – |
| (DAsn-Ile-Pro-Nva-Leu-Tyr-DSer-Phe-Ala-DSer-His-Pro)2-Dab-NH2 ([dN]IP[Nva]LY[dS]FA[dS]HP[Dab′]-NH2; also: branched dimer: two chains joined via C-terminal Dab) [ADP399, linear branched dimer of ADP355] | – | less corneal staining | similar | higher | no significant difference |
| DAsn-Ile-Pro-Nva-Leu-Tyr-DSer-Phe-Ala-DSer-NH2 ([dN]IP[Nva]LY[dS]FA[dS]-NH2; N-terminus assumed; SMILES CCC[C@H](NC(=O)[C@@H]1CCCN1C(=O)[C@@H](NC(=O)[C@H](N)CC(N)=O)[C@@H](C)CC)C(=O)N[C@@H](CC(C)C)C(=O)N[C@@H](Cc1ccc(O)cc1)C(=O)N[C@H](CO)C(=O)N[C@@H](Cc1ccccc1)C(=O)N[C@@H](C)C(=O)N[C@H](CO)C(N)=O) [ADP355, single chain adiponectin peptidomimetic] | improved corneal disruptions | less corneal staining | similar | higher | no significant difference |

From patent US10537608B2, “Adiponectin peptidomimetics for treating ocular disorders” (Allysta Pharmaceuticals, Inc., priority 2015, dated 2020)
